Test results reported in DBAASP.
≈ marks a conversion by molar mass, not a printed value. Where “and” joins values, the source holds several entries; their conditions need not be identical. Equal entries are not always repeated. Blank lines part the entries; values can stand above or below the molecule they belong to.

Columns and labels:
Assay in all cases: ≥ marks a high value that may be exact or a test limit, other limits are often not marked, values filed in µg/mL are converted to µM
[1] = test system: Staphylococcus aureus
[2] = test system: Streptococcus sanguinis
[3] = test system: Burkholderia cepacia
[4] = test system: Staphylococcus aureus ATCC 43300
[5] = test system: Bordetella bronchiseptica CUN 11844-99
[6] = test system: Klebsiella pneumoniae
[7] = test system: Escherichia coli ESBL
[8] = test system: Escherichia coli ATCC 25922
[9] = test system: Vibrio cholerae CUN 09
[10] = test system: Salmonella enterica serovar Minnesota R60
[11] = test system: Acinetobacter baumannii
[12] = test system: Pseudomonas aeruginosa ATCC 27853
[13] = test system: Moraxella catarrhalis
[14] = test system: Enterococcus faecium
[15] = test system: Pseudomonas aeruginosa CUN 4158-02
[16] = test system: Candida albicans
[17] = test system: Staphylococcus aureus CUN 3792-99
[18] = test system: Acinetobacter baumannii ATCC 19506
[19] = test system: Staphylococcus aureus ATCC 25923
[20] = test system: Streptococcus mutans
[21] = test system: Staphylococcus aureus K147
[22] = test system: Pseudomonas aeruginosa H547
[23] = test system: Acinetobacter calcoaceticus C402
[24] = test system: Pseudomonas aeruginosa H374
[25] = test system: Enterococcus faecalis ATCC 29212
[26] = test system: Streptococcus pyogenes ATCC 19615
[27] = test system: Escherichia coli KF130
[28] = test system: Acinetobacter calcoaceticus ATCC 23055
[29] = test system: Pseudomonas aeruginosa Z61
[30] = test system: Staphylococcus aureus SAP 0017
[31] = test system: Pseudomonas aeruginosa H744
[32] = test system: Salmonella enterica subsp. enterica serovar Typhimurium ATCC 14028s
[33] = test system: Enterobacter cloacae C601
[34] = test system: Enterobacter cloacae ATCC 13047
[35] = test system: Pseudomonas aeruginosa H187
[36] = test system: Staphylococcus epidermidis
[37] = test system: Staphylococcus haemolyticus
[38] = test system: Enterococcus faecalis C625
[39] = test system: Burkholderia cepacia ATCC 25416
[40] = test system: Listeria monocytogenes NCTC 7973
[41] = test system: Stenotrophomonas maltophilia ATCC 13637
[42] = test system: Mycobacterium tuberculosis H37Rv
[43] = test system: Pseudomonas aeruginosa K799
[44] = test system: Corynebacterium xerosis
[45] = test system: Candida albicans CAN105
[46] = test system: Escherichia coli KF111
[47] = test system: Legionella pneumophila Lens
[48] = test system: Salmonella enterica subsp. enterica serovar Pullorum ATCC 7913
[49] = test system: Escherichia coli 1005
[50] = test system: Candida parapsilosis CGMCC 2.3989
[51] = test system: Staphylococcus aureus ATCC 29213
[52] = test system: Candida tropicalis CGMCC 2.1975
[53] = test system: Staphylococcus epidermidis ATCC 12228
[54] = test system: Candida krusei CGMCC 2.1857
[55] = test system: Salmonella enterica subsp. enterica serovar Typhimurium ATCC 14028

Structure (SMILES): NCCCC[C@H](NC(=O)CNC(=O)[C@H](CCCCN)NC(=O)[C@H](Cc1ccccc1)NC(=O)[C@H](CCCCN)NC(=O)[C@H](Cc1c[nH]c2ccccc12)NC(=O)[C@H](CCCN=C(N)N)NC(=O)[C@H](Cc1ccccc1)NC(=O)[C@H](CCCN=C(N)N)NC(=O)[C@H](CCCN=C(N)N)NC(=O)[C@H](Cc1ccc(O)cc1)NC(=O)[C@H](CCCCN)NC(=O)[C@H](CCCCN)NC(=O)[C@H](CS)NC(=O)CN)C(=O)N[C@@H](Cc1ccccc1)C(=O)N[C@@H](Cc1c[nH]c2ccccc12)C(=O)N[C@@H](Cc1ccccc1)C(=O)N[C@@H](Cc1c[nH]c2ccccc12)C(=O)NCC(N)=O [GCKKYRRFRWKFKGKFWFWG]
MIC [3]: 11.8 µM (≈ 32 µg/mL)
MIC [4]: 11.8 µM (≈ 32 µg/mL)
MIC [5]: 11.8 µM (≈ 32 µg/mL)
MIC [6]: > 47.2 µM
MIC [7]: ≥ 47.2 µM and 23.6 µM
MIC [8]: 47.2 µM (≈ 128 µg/mL)
MIC [9]: ≥ 94.4 µM
MIC [10]: 11.8 µM (≈ 32 µg/mL)
MIC [11]: ≥ 47.2 µM
MIC [12]: 94.4 µM (≈ 256 µg/mL)
MIC [13]: 11.8 µM (≈ 32 µg/mL)
MIC [14]: 11.8 µM (≈ 32 µg/mL)
MIC [15]: ≥ 47.2 µM
MIC [16]: 94.4 µM (≈ 256 µg/mL)
MIC [17]: ≥ 47.2 µM
MIC [18]: ≥ 47.2 µM
MIC [19]: 11.8 µM (≈ 32 µg/mL)
MIC [20]: 11.8 µM (≈ 32 µg/mL)

Structure (SMILES): CC[C@H](C)[C@H](NC(=O)[C@H](CC(C)C)NC(=O)[C@@H]1CCCN1C(=O)[C@H](CCCCN)NC(=O)[C@H](C)NC(=O)[C@@H](NC(=O)[C@@H](NC(=O)[C@@H](NC(=O)[C@@H](NC(=O)[C@H](CCCCN)NC(=O)[C@H](CCCCN)NC(=O)[C@H](C)NC(=O)[C@H](C)NC(=O)[C@H](CO)NC(=O)[C@@H](NC(=O)[C@H](CC(C)C)NC(=O)[C@H](CCCCN)NC(=O)[C@H](CCCCN)NC(=O)[C@@H](NC(=O)[C@H](Cc1ccccc1)NC(=O)[C@H](CO)NC(=O)[C@H](CCCCN)NC(=O)[C@H](Cc1c[nH]c2ccccc12)NC(=O)[C@@H](N)CCCCN)[C@@H](C)CC)[C@@H](C)O)C(C)C)C(C)C)[C@@H](C)O)[C@@H](C)O)C(=O)N[C@@H](CO)C(=O)N[C@@H](CO)C(=O)O [KWKSFIKKLTSAAKKVVTTAKPLISS]
MIC [21]: 22.4 µM (≈ 64 µg/mL)
MIC [22]: 1.4 µM (≈ 4 µg/mL)
MIC [23]: 2.8 µM and 1.4 µM
MIC [24]: 0.699 µM (≈ 2 µg/mL)
MIC [25]: > 22.4 µM
MIC [26]: 5.59 µM (≈ 16 µg/mL)
MIC [27]: 0.349 µM (≈ 1 µg/mL)
MIC [28]: 0.699 µM (≈ 2 µg/mL)
MIC [29]: 1.05 µM (≈ 3 µg/mL)
MIC [30]: 22.4 µM (≈ 64 µg/mL)
MIC [31]: 0.699 µM (≈ 2 µg/mL)
MIC [32]: 1.05 µM (≈ 3 µg/mL)
MIC [33]: 2.8 µM and 1.4 µM
MIC [34]: 0.699 µM (≈ 2 µg/mL)
MIC [35]: 11.2 µM (≈ 32 µg/mL)
MIC [36]: 11.2 µM (≈ 32 µg/mL)
MIC [37]: 22.4 µM (≈ 64 µg/mL)
MIC [38]: 5.59 µM and 11.2 µM
MIC [12]: 2.8 µM and 4 µM
MIC [39]: 22.4 µM (≈ 64 µg/mL)
MIC [40]: 5.59 µM (≈ 16 µg/mL)
MIC [41]: 0.699 µM (≈ 2 µg/mL)
MIC [42]: 0.734 µM (≈ 2.1 µg/mL)
MIC [43]: 1.4 µM (≈ 4 µg/mL)
MIC [44]: 0.349 µM (≈ 1 µg/mL)
MIC [45]: 22.4 µM (≈ 64 µg/mL)
MIC [19]: 22.4 µM (≈ 64 µg/mL)
MIC [46]: 0.699 µM (≈ 2 µg/mL)

Continued, values first:

MIC [1]: 583 µM (≈ 353 µg/mL)
MIC [2]: ≥ 291 µM
Structure (SMILES): NC(=O)[C@H](Cc1ccccc1)NC(=O)[C@H](Cc1ccccc1)NC(=O)[C@H](Cc1ccccc1)NC(=O)[C@@H](N)Cc1ccccc1 [FFFF]

MIC [47]: 1.3 µM (≈ 3.12 µg/mL)
Structure (SMILES): CC[C@H](C)[C@H](NC(=O)[C@H](CC(C)C)NC(=O)CNC(=O)[C@H](CCCCN)NC(=O)[C@@H](NC(=O)[C@@H](NC(=O)[C@H](CCC(=O)O)NC(=O)[C@@H](NC(=O)[C@@H](NC(=O)[C@H](CCCCN)NC(=O)[C@H](C)NC(=O)[C@@H](NC(=O)[C@@H](NC(=O)CNC(=O)[C@H](C)NC(=O)[C@@H](N)CCSC)C(C)C)[C@@H](C)CC)[C@@H](C)CC)C(C)C)[C@@H](C)CC)C(C)C)C(=O)N[C@@H](CC(=O)O)C(=O)N[C@@H](CCC(N)=O)C(=O)N[C@@H](Cc1ccccc1)C(=O)N[C@H](C(=O)N[C@@H](CCC(N)=O)C(=O)N[C@@H](CCCCN)C(=O)O)[C@@H](C)O [MAGVIAKIVEIVKGLIDQFTQK]

MIC [4]: 8 µM (≈ 12.2 µg/mL)
MIC [48]: 2 µM (≈ 3.04 µg/mL)
MIC [49]: 4 µM (≈ 6.08 µg/mL)
MIC [50]: ≥ 64 µM
MIC [51]: 16 µM (≈ 24.3 µg/mL)
MIC [16]: 4 µM (≈ 6.08 µg/mL)
MIC [52]: 2 µM (≈ 3.04 µg/mL)
MIC [53]: 4 µM (≈ 6.08 µg/mL)
MIC [54]: 4 µM (≈ 6.08 µg/mL)
MIC [55]: 4 µM (≈ 6.08 µg/mL)
MIC [19]: 4 µM (≈ 6.08 µg/mL)
Structure (SMILES): CC(C)C[C@H](NC(=O)[C@H](CCCN=C(N)N)NC(=O)[C@H](CC(C)C)NC(=O)[C@H](CC(C)C)NC(=O)[C@H](CC(C)C)NC(=O)[C@H](CCCN=C(N)N)NC(=O)[C@H](CC(C)C)NC(=O)[C@H](CCCN=C(N)N)NC(=O)[C@@H](N)CCCN=C(N)N)C(=O)N[C@@H](CCCN=C(N)N)C(=O)N[C@@H](CCCN=C(N)N)C(N)=O [RRLRLLLRLRR]
